Measured values taken from patent publication US12495798B2, “Nicotinamide compound and herbicidal composition comprising compound” (KOREA RESEARCH INSTITUTE OF CHEMICAL TECHNOLOGY, priority 2019, dated 2025).

Assays:
Format in all cases: in vivo
[1] = test system: soybean; test: Phytotoxicity test for upland field crops (foliar treatment test); parameters: key: 0 (no harm); 9 (complete withered)
In short: (§1)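 Greenhouse-grown crops (30±5 °C, 14/10 h light/dark) in soil pots were foliar-sprayed with compound in 33% acetone/0.1% Tween-20 at 19˜300 g a.i./ha, 100 ml per m^2. Injury was graded 0 (no harm) to 9 (complete withered) versus untreated control at 7 and 14 days after treatment, or 21 days if needed.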

[2] = test system: corn; test: as above; parameters: key: 0 (no harm); 9 (complete withered)
In short: as §1

[3] = test system: rice; test: as above; parameters: key: 0 (no harm); 9 (complete withered)
In short: as §1

[4] = test system: cotton; test: as above; parameters: key: 0 (no harm); 9 (complete withered)
In short: as §1

[5] = test system: wheat; test: as above; parameters: key: 0 (no harm); 9 (complete withered)
In short: as §1

[6] = test system: velvetleaf; test: Herbicidal activity test against upland field weeds (foliar treatment test); details: Abutilon theophrasti, 50 g ai/ha, scale 0-100, read-out: Foliar treatment herbicidal activity, velvet leaf
In short: (§2)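 Weeds were raised from seed or rootstocks in horticultural soil in a greenhouse (30±5° C., 14/10 h light/dark), then foliage was hand-sprayed with compound at 50 or 75 g a.i./ha in 50% acetone with 0.1% Tween-20. Control was scored visually 0–100 against untreated plants after 14 days, or 21 if needed.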

[7] = test system: sorghum; test: Herbicidal activity test against upland field weeds (soil treatment test); parameters: key to Soil treatment herbicidal activity, Sorghum: 0 (no control); 100 (complete control); details: 50 g ai/ha, scale 0 (no control) to 100 (complete control); for plant injury at 50 g/ha: Sorghum
In short: (§3)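 Pre-emergence test: seeds or rootstocks were sown in fertilized sandy loam, and the next day the soil surface was sprayed with compound at 50 or 75 g a.i./ha in 50% acetone/0.1% Tween-20. Plants were grown in a greenhouse (30±5 °C, 14/10 h light/dark), then visually scored 0–100 against untreated at 14 d (21 d if needed).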

[8] = test system: fall panicum; test: as above; parameters: key to Soil treatment herbicidal activity, Fall panicum: 0 (no control); 100 (complete control); details: 50 g ai/ha, scale 0 (no control) to 100 (complete control); for pest or weed control at 50 g/ha: Panicum dichotomiflorum
In short: as §3

[9] = test system: sorghum; test: Herbicidal activity test against upland field weeds (foliar treatment test); details: Sorghum, 50 g ai/ha, scale 0-100
In short: as §2

[10] = test system: velvetleaf; test: Herbicidal activity test against upland field weeds (soil treatment test); parameters: key to Soil treatment herbicidal activity, velvet leaf: 0 (no control); 100 (complete control); details: 50 g ai/ha, scale 0 (no control) to 100 (complete control)
In short: as §3

[11] = test system: crabgrass; test: Herbicidal activity test against upland field weeds (foliar treatment test); parameters: key to Foliar treatment herbicidal activity, Crabgrass: 0 (no control); 100 (complete control); details: 50 g ai/ha, scale 0-100; for pest or weed control at 50 g/ha: Digitaria sanguinalis
In short: as §2

[12] = test system: black nightshade; test: as above; parameters: key to Foliar treatment herbicidal activity, black nightshade: 0 (no control); 100 (complete control); details: 50 g ai/ha, scale 0-100; for pest or weed control at 50 g/ha: Solanum nigrum
In short: as §2

[13] = test system: quack grass; test: Herbicidal activity test against upland field weeds (soil treatment test); parameters: key to Soil treatment herbicidal activity, quack grass: 0 (no control); 100 (complete control); details: 50 g ai/ha, scale 0 (no control) to 100 (complete control)
In short: as §3

[14] = 50 g ai/ha, Soybean (7 days after treatment)
[15] = 50 g ai/ha, Soybean (14 days after treatment)
[16] = 100 g ai/ha, Soybean (7 days after treatment)
[17] = 100 g ai/ha, Soybean (14 days after treatment)
[18] = 50 g ai/ha, Corn (7 days after treatment)
[19] = 50 g ai/ha, Corn (14 days after treatment)
[20] = 100 g ai/ha, Corn (7 days after treatment)
[21] = 100 g ai/ha, Corn (14 days after treatment)
[22] = 50 g ai/ha, Rice (7 days after treatment)
[23] = 50 g ai/ha, Rice (14 days after treatment)
[24] = 100 g ai/ha, Rice (7 days after treatment)
[25] = 100 g ai/ha, Rice (14 days after treatment)
[26] = 50 g ai/ha, Cotton (7 days after treatment)
[27] = 50 g ai/ha, Cotton (14 days after treatment)
[28] = 100 g ai/ha, Cotton (7 days after treatment)
[29] = 100 g ai/ha, Cotton (14 days after treatment)
[30] = 50 g ai/ha, Wheat (7 days after treatment)
[31] = 50 g ai/ha, Wheat (14 days after treatment)
[32] = 100 g ai/ha, Wheat (7 days after treatment)
[33] = 100 g ai/ha, Wheat (14 days after treatment)

Row | Structure (SMILES) | Foliar treatment phytotoxicity, Soybean [1, 14] | Foliar treatment phytotoxicity, Soybean [1, 15] | Foliar treatment phytotoxicity, Soybean [1, 16] | Foliar treatment phytotoxicity, Soybean [1, 17] | Foliar treatment phytotoxicity, Corn [2, 18] | Foliar treatment phytotoxicity, Corn [2, 19] | Foliar treatment phytotoxicity, Corn [2, 20] | Foliar treatment phytotoxicity, Corn [2, 21] | Foliar treatment phytotoxicity, Rice [3, 22] | Foliar treatment phytotoxicity, Rice [3, 23] | Foliar treatment phytotoxicity, Rice [3, 24] | Foliar treatment phytotoxicity, Rice [3, 25] | Foliar treatment phytotoxicity, Cotton [4, 26] | Foliar treatment phytotoxicity, Cotton [4, 27] | Foliar treatment phytotoxicity, Cotton [4, 28] | Foliar treatment phytotoxicity, Cotton [4, 29] | Foliar treatment phytotoxicity, Wheat [5, 30] | Foliar treatment phytotoxicity, Wheat [5, 31] | Foliar treatment phytotoxicity, Wheat [5, 32] | Foliar treatment phytotoxicity, Wheat [5, 33] | also measured
1 | Cn1nnnc1COc1nc(C(F)(F)F)ccc1C(=O)Nc1nnnn1C [Compound No. 1-1, N-(1-methyl-1H-tetrazol-5-yl)-2-((1-methyl-1H-tetrazol-5-yl)methoxy)-6-(trifluoromethyl)nicotinamide] | 7 | 0 | 8 | 9 | 2 | 2 | 4 | 4 | 4 | 8 | 6 | 9 | 3 | 0 | 3 | 7 | 1 | 1 | 3 | 2 | pest or weed control at 50 g/ha [6]: 98%; Soil treatment herbicidal activity, Sorghum [7]: 0; pest or weed control at 50 g/ha [8]: 98%; plant injury at 50 g/ha [9]: 70%; Soil treatment herbicidal activity, velvet leaf [10]: 100; Foliar treatment herbicidal activity, Crabgrass [11]: 100; Foliar treatment herbicidal activity, black nightshade [12]: 100; Soil treatment herbicidal activity, quack grass [13]: 0
2 | Cn1nnc(COCc2nc(C(F)(F)C(F)(F)F)ccc2C(=O)Nc2nnnn2C)n1 [Compound No. 2-81, N-(1-methyl-1H-tetrazol-5-yl)-2-(((2-methyl-2H-tetrazol-5-yl)methoxy)methyl)-6-(perfluoroethyl)nicotinamide] | 5 | 6 | 6 | 7 | 2 | 1 | 2 | 1 | 5 | 3 | 6 | 5 | 4 | 9 | 4 | 9 | 0 | 0 | 0 | 0 | pest or weed control at 50 g/ha [6]: 90%; plant injury at 50 g/ha [7]: 50%; pest or weed control at 50 g/ha [8]: 98%; plant injury at 50 g/ha [9]: 40%; Soil treatment herbicidal activity, velvet leaf [10]: 100; pest or weed control at 50 g/ha [11]: 70%; pest or weed control at 50 g/ha [12]: 95%; Soil treatment herbicidal activity, quack grass [13]: 0
3 | Cn1ncnc1COCc1nc(C(F)(F)F)ccc1C(=O)Nc1nnnn1C [Compound No. 1-102, 2-(((1-methyl-1H-1,2,4-triazol-5-yl)methoxy)methyl)-N-(1-methyl-1H-tetrazol-5-yl)-6-(trifluoromethyl)nicotinamide] | 5 | 8 | 6 | 9 | 6 | 6 | 6 | 8 | 6 | 8 | 7 | 9 | 4 | 8 | 5 | 9 | 2 | 2 | 3 | 3 | pest or weed control at 50 g/ha [6]: 80%; Soil treatment herbicidal activity, Sorghum [7]: 0; pest or weed control at 50 g/ha [8]: 70%; plant injury at 50 g/ha [9]: 50%; pest or weed control at 50 g/ha ([10]; Abutilon theophrasti, read-out: Soil treatment herbicidal activity, velvet leaf): 40%; pest or weed control at 50 g/ha [11]: 70%; pest or weed control at 50 g/ha [12]: 95%; Soil treatment herbicidal activity, quack grass [13]: 0
4 | Cn1nnc(CSCc2nc(C(F)(F)F)ccc2C(=O)Nc2nnnn2C)n1 [Compound No. 2-102, N-(1-methyl-1H-tetrazol-5-yl)-2-((((2-methyl-2H-tetrazol-5-yl)methyl)thio)methyl)-6-(trifluoromethyl)nicotinamide] | 0 | 0 | 0 | 0 | 0 | 0 | 0 | 0 | 3 | 3 | 4 | 4 | 0 | 0 | 0 | 0 | 0 | 0 | 0 | 1 | pest or weed control at 50 g/ha [6]: 80%; plant injury at 50 g/ha [7]: 20%; Soil treatment herbicidal activity, Fall panicum [8]: 100; plant injury at 50 g/ha [9]: 70%; Soil treatment herbicidal activity, velvet leaf [10]: 100; Foliar treatment herbicidal activity, Crabgrass [11]: 100; Foliar treatment herbicidal activity, black nightshade [12]: 100; Soil treatment herbicidal activity, quack grass [13]: 0
